{"source": "patent US20250002464A1", "about": "“NOVEL COMPOUND AND PHARMACEUTICAL COMPOSITION COMPRISING SAME” (SAPIENSBIO INC., priority 2021, published 2025)"}
{"test_system": "α-SMA", "assay": "α-SMA expression inhibitory ability in MRC5 cell line (Western blotting)", "type": "cell-based", "details": "TGF-β1 (10 ng/mL), 72 hours, relative to TGF-β1 only", "procedure": "Subsequently, the inhibitory effect on pulmonary fibrosis of the compounds according to the present invention was overall evaluated. An MRC5 cell line was treated with each compound at 10 μM, and 2 hours later, treated with TGF-β1 (10 ng/mL). After 72 hours, the cells were lysed using RIPA Buffer, and then an α-SMA protein level was measured through Western blotting. The α-SMA expression level when treating the cells with each compound and TGF-β1 compared to the α-SMA expression level when treating the cells only with TGF-β1 without the compound was calculated as the α-SMA expression inhibitory ability of the corresponding compound. The α-SMA expression inhibitory ability of each compound is summarized in Table 2 below (A: inhibitory ability≥70%, B: 50%: inhibitory ability<70%, C: inhibitory ability<50%).", "units": {"inhibition at 10 µM": "%"}}
{"smiles": "O=C(CCN1CCCCC1)N1CCN(Cc2ccncc2)c2ccccc21", "note": "[Compound 123, 3-(piperidin-1-yl)-1-(4-(pyridin-4-ylmethyl)-3,4-dihydroquinoxaline-1(2H)-yl)propan-1-one]", "inhibition at 10 µM": "< 50"}
{"smiles": "O=C(CCN1CCCC1)N1CCN(c2ccccc2Cl)c2ccccc21", "note": "[Compound 125, 1-(4-(2-chlorophenyl)-3,4-dihydroquinoxaline-1(2H)-yl)-3-(pyrrolidin-1-yl)propan-1-one]", "inhibition at 10 µM": "50 to 70"}
{"smiles": "O=C(CCN1CCCCC1)N1CCN(c2ccccc2Cl)c2ccccc21", "note": "[Compound 126, 1-(4-(2-chlorophenyl)-3,4-dihydroquinoxaline-1(2H)-yl)-3-(piperidin-1-yl)propan-1-one]", "inhibition at 10 µM": "50 to 70"}
{"smiles": "CN1CCN(CCC(=O)N2CCN(c3ccccc3Cl)c3ccccc32)CC1", "note": "[Compound 127, 1-(4-(2-chlorophenyl)-3,4-dihydroquinoxaline-1(2H)-yl)-3-(4-methylpiperazin-1-yl)propan-1-one]", "inhibition at 10 µM": "50 to 70"}
{"smiles": "CC(C(=O)N1CCN(c2ccccc2Cl)c2ccccc21)N1CCCC1", "note": "(stereo not shown) [Compound 128, 1-(4-(2-chlorophenyl)-3,4-dihydroquinoxaline-1(2H)-yl)-2-(pyrrolidin-1-yl)propan-1-one]", "inhibition at 10 µM": "50 to 70"}
{"smiles": "CC(C(=O)N1CCN(c2ccccc2Cl)c2ccccc21)N1CCCCC1", "note": "(stereo not shown) [Compound 129, 1-(4-(2-chlorophenyl)-3,4-dihydroquinoxaline-1(2H)-yl)-2-(piperidin-1-yl)propan-1-one]", "inhibition at 10 µM": "≥ 70"}
{"smiles": "CC(C(=O)N1CCN(c2ccccc2Cl)c2ccccc21)N1CCN(C)CC1", "note": "(stereo not shown) [Compound 130, 1-(4-(2-chlorophenyl)-3,4-dihydroquinoxaline-1(2H)-yl)-2-(4-methylpiperazin-1-yl)propan-1-one]", "inhibition at 10 µM": "50 to 70"}
{"smiles": "O=C(CN1CCCC1)N1CCN(c2ccccc2Cl)c2ccccc21", "note": "[Compound 131, 1-(4-(2-chlorophenyl)-3,4-dihydroquinoxaline-1(2H)-yl)-2-(pyrrolidin-1-yl)ethan-1-one]", "inhibition at 10 µM": "50 to 70"}
{"smiles": "O=C(CN1CCCCC1)N1CCN(c2ccccc2Cl)c2ccccc21", "note": "[Compound 132, 1-(4-(2-chlorophenyl)-3,4-dihydroquinoxaline-1(2H)-yl)-2-(piperidin-1-yl)ethan-1-one]", "inhibition at 10 µM": "50 to 70"}
{"smiles": "CN1CCN(CC(=O)N2CCN(c3ccccc3Cl)c3ccccc32)CC1", "note": "[Compound 133, 1-(4-(2-chlorophenyl)-3,4-dihydroquinoxaline-1(2H)-yl)-2-(4-methylpiperazin-1-yl)ethan-1-one]", "inhibition at 10 µM": "50 to 70"}
{"smiles": "O=C(CCN1CCCC1)N1CCN(c2cccc(Cl)c2)c2ccccc21", "note": "[Compound 134, 1-(4-(3-chlorophenyl)-3,4-dihydroquinoxaline-1(2H)-yl)-3-(pyrrolidin-1-yl)propan-1-one]", "inhibition at 10 µM": "≥ 70"}
{"smiles": "CN1CCN(CCC(=O)N2CCN(c3cccc(Cl)c3)c3ccccc32)CC1", "note": "[Compound 135, 1-(4-(3-chlorophenyl)-3,4-dihydroquinoxaline-1(2H)-yl)-3-(4-methylpiperazin-1-yl)propan-1-one]", "inhibition at 10 µM": "≥ 70"}
{"smiles": "CC(C(=O)N1CCN(c2cccc(Cl)c2)c2ccccc21)N1CCCC1", "note": "(stereo not shown) [Compound 136, 1-(4-(3-chlorophenyl)-3,4-dihydroquinoxaline-1(2H)-yl)-2-(pyrrolidin-1-yl)propan-1-one]", "inhibition at 10 µM": "≥ 70"}
{"smiles": "CC(C(=O)N1CCN(c2cccc(Cl)c2)c2ccccc21)N1CCN(C)CC1", "note": "(stereo not shown) [Compound 137, 1-(4-(3-chlorophenyl)-3,4-dihydroquinoxaline-1(2H)-yl)-2-(4-methylpiperazin-1-yl)propan-1-one]", "inhibition at 10 µM": "≥ 70"}
{"smiles": "O=C(CN1CCCC1)N1CCN(c2cccc(Cl)c2)c2ccccc21", "note": "[Compound 138, 1-(4-(3-chlorophenyl)-3,4-dihydroquinoxaline-1(2H)-yl)-2-(pyrrolidin-1-yl)ethan-1-one]", "inhibition at 10 µM": "≥ 70"}
{"smiles": "CN1CCN(CC(=O)N2CCN(c3cccc(Cl)c3)c3ccccc32)CC1", "note": "[Compound 139, 1-(4-(3-chlorophenyl)-3,4-dihydroquinoxaline-1(2H)-yl)-2-(4-methylpiperazin-1-yl)ethan-1-one]", "inhibition at 10 µM": "≥ 70"}
{"smiles": "O=C(CCN1CCCC1)N1CCN(c2ccc(Cl)cc2)c2ccccc21", "note": "[Compound 140, 1-(4-(4-chlorophenyl)-3,4-dihydroquinoxaline-1(2H)-yl)-3-(pyrrolidin-1-yl)propan-1-one]", "inhibition at 10 µM": "< 50"}
{"smiles": "O=C(CCN1CCCCC1)N1CCN(c2ccc(Cl)cc2)c2ccccc21", "note": "[Compound 141, 1-(4-(4-chlorophenyl)-3,4-dihydroquinoxaline-1(2H)-yl)-3-(piperidin-1-yl)propan-1-one]", "inhibition at 10 µM": "50 to 70"}
{"smiles": "CC(C(=O)N1CCN(c2ccc(Cl)cc2)c2ccccc21)N1CCN(C)CC1", "note": "(stereo not shown) [Compound 145, 1-(4-(4-chlorophenyl)-3,4-dihydroquinoxaline-1(2H)-yl)-2-(4-methylpiperazin-1-yl)propan-1-one]", "inhibition at 10 µM": "≥ 70"}
{"smiles": "O=C(CCN1CCCC1)N1CCN(c2ccccn2)c2ccccc21", "note": "[Compound 146]", "inhibition at 10 µM": "< 50"}
{"smiles": "CC(C(=O)N1CCN(c2ccccn2)c2ccccc21)N1CCCC1", "note": "(stereo not shown) [Compound 149]", "inhibition at 10 µM": "< 50"}
{"smiles": "CC(C(=O)N1CCN(c2ccccn2)c2ccccc21)N1CCCCC1", "note": "(stereo not shown) [Compound 150]", "inhibition at 10 µM": "≥ 70"}
{"smiles": "O=C(CN1CCCC1)N1CCN(c2ccccn2)c2ccccc21", "note": "[Compound 152]", "inhibition at 10 µM": "≥ 70"}
{"smiles": "O=C(CN1CCCCC1)N1CCN(c2ccccn2)c2ccccc21", "note": "[Compound 153, 2-(piperidin-1-yl)-1-(4-(pyridin-2-yl)-3,4-dihydroquinoxaline-1(2H)-yl)ethan-1-one]", "inhibition at 10 µM": "≥ 70"}
{"smiles": "CN1CCN(CC(=O)N2CCN(c3ccccn3)c3ccccc32)CC1", "note": "[Compound 154, 2-(4-methylpiperazin-1-yl)-1-(4-(pyridin-2-yl)-3,4-dihydroquinoxaline-1(2H)-yl)ethan-1-one di L-tartrate]", "inhibition at 10 µM": "≥ 70"}
{"smiles": "O=C(CCN1CCCC1)N1CCN(c2ccncc2)c2ccccc21", "note": "[Compound 158, 1-(4-(pyridin-4-yl)-3,4-dihydroquinoxaline-1(2H)-yl)-3-(pyrrolidin-1-yl)propan-1-one]", "inhibition at 10 µM": "< 50"}
{"smiles": "O=C(CCN1CCCCC1)N1CCN(c2ccncc2)c2ccccc21", "note": "[Compound 159, 3-(piperidin-1-yl)-1-(4-(pyridin-4-yl)-3,4-dihydroquinoxaline-1(2H)-yl)propan-1-one]", "inhibition at 10 µM": "< 50"}
{"smiles": "O=C(CCN1CCCC1)N1CCN(CC2CC2)c2ccccc21", "note": "[Compound 161, 1-(4-(cyclopropylmethyl)-3,4-dihydroquinoxaline-1(2H)-yl)-3-(pyrrolidin-1-yl)propan-1-one]", "inhibition at 10 µM": "< 50"}
{"smiles": "O=C(CCN1CCCCC1)N1CCN(CC2CC2)c2ccccc21", "note": "[Compound 162, 1-(4-(cyclopropylmethyl)-3,4-dihydroquinoxaline-1(2H)-yl)-3-(piperidin-1-yl)propan-1-one]", "inhibition at 10 µM": "< 50"}
{"smiles": "CN1CCN(CCC(=O)N2CCN(CC3CC3)c3ccccc32)CC1", "note": "[Compound 163, 1-(4-(cyclopropylmethyl)-3,4-dihydroquinoxaline-1(2H)-yl)-3-(4-methylpiperazin-1-yl)propan-1-one]", "inhibition at 10 µM": "< 50"}
{"smiles": "CC(C(=O)N1CCN(CC2CC2)c2ccccc21)N1CCCCC1", "note": "(stereo not shown) [Compound 165, 1-(4-(cyclopropylmethyl)-3,4-dihydroquinoxaline-1(2H)-yl)-2-(piperidin-1-yl)propan-1-one]", "inhibition at 10 µM": "< 50"}
